# According to patent publication US10869933B2, “Oligomer-phenothiazine conjugates” (Nektar Therapeutics, priority 2009, dated 2020):
# Where two headings read alike, the source gives them in different places.
# Columns and labels:
# [1] = biological target: T1, recombinant human H4 histamine receptor (Homo sapiens, UniProt Q9H3N8); experiment: Histamine H4 receptor radioligand binding; details: [3H]Histamine 8.2 nM, human rCHO-K1 cell membranes; up to 30 μM
# T1 construct: expressed in transfected cells; host or cells: CHO cells (membranes)
# T1 sequence (Q9H3N8 whole entry): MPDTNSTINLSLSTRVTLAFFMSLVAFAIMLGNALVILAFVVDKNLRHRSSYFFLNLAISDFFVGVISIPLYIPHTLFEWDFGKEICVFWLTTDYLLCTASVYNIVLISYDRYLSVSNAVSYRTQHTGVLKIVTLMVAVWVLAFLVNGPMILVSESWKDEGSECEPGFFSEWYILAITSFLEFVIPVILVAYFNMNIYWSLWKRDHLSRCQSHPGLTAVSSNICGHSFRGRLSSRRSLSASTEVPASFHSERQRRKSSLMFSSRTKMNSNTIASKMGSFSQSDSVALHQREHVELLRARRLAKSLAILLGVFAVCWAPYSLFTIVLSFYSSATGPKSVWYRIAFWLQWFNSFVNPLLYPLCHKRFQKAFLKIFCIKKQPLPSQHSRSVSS
# Method: (§1) The radioligands used are specific for each receptor subtype and the assay conditions are described in Table 2. […] Ki is obtained using the Cheng Prusoff correction using experimental Kd vales that are determined under these assay conditions.
# [2] = biological target: T2, recombinant human H3 histamine receptor (Homo sapiens, UniProt Q9Y5N1); experiment: Histamine H3 receptor radioligand binding; details: [3H]R(−)-α-Methylhistamine 3 nM, human rCHO-K1 cell membranes; up to 30 μM
# T2 construct: expressed in transfected cells; host or cells: CHO cells (membranes)
# T2 sequence (Q9Y5N1 whole entry): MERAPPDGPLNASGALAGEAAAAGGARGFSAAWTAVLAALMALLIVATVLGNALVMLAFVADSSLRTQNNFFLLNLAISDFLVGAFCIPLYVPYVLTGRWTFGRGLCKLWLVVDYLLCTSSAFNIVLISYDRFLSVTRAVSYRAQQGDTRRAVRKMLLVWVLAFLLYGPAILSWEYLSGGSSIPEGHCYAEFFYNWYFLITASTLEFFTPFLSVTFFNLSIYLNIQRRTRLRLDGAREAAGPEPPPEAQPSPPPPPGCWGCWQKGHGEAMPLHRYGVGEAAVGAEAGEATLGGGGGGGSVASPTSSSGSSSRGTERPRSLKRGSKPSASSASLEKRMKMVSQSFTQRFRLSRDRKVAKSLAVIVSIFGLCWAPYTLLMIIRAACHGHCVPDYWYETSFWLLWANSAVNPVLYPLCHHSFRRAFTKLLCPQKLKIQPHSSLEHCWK
# Method: as §1
# [3] = Log P determination (Sirius GLpKa); format: physicochemical; details: Partition Log P, average of three measurements
# Method: (§2) A blank standardization has to be completed first and passed in order to conduct the compound experiments. The solutions used by the instrument for the blank titration include water, a pH solution, and a surfactant (TRITON X-100). The TRITON X-100 was purchased commercially from Sirus. The 0.5% solution of TRITON X-100 was used in the experiment. In a 1 L volumetric flask 5 mls of TRITON X-100 is added and MILLI Q water to volume. The vessels used by the instrument were filled to ⅓ of their volume with each solution. Therefore the assay tray contains one vessel for water, pH solution, and surfactant for the blank run. The temperature of the water bath for the instrument is 25° C. The blank is calculated as an average of three “good” experiments. The “good” was denoted by a green check mark next to the assay number in the computer software. Once the blank was run successfully the instrument was ready to conduct the experiments.
# An additional method has to be set up for the Log P determinations for each compound. […] The vessels are placed in the assay tray of the instrument. The experimental parameters are entered into the computer. These included sample weight, molecular weight, assay type (Partition Log P), number of assays (three), and pKa value of the parent drug from the previous experiment. The run was started. There are three measurements for each run that are averaged to obtain the final results from the data points collected in the calculation software. All runs were denoted as “good” by the green check mark next to the assay number.
# [4] = biological target: T3, recombinant human H1 histamine receptor (Homo sapiens, UniProt P35367); experiment: Histamine H1 receptor radioligand binding; details: for Ki: [3H]-Pyrilamine 1.2 nM, human rCHO cell membranes; for Fold change in binding affinity at H1: relative to Promethazine
# T3 construct: expressed in transfected cells; host or cells: CHO cells (membranes)
# T3 sequence (P35367 whole entry): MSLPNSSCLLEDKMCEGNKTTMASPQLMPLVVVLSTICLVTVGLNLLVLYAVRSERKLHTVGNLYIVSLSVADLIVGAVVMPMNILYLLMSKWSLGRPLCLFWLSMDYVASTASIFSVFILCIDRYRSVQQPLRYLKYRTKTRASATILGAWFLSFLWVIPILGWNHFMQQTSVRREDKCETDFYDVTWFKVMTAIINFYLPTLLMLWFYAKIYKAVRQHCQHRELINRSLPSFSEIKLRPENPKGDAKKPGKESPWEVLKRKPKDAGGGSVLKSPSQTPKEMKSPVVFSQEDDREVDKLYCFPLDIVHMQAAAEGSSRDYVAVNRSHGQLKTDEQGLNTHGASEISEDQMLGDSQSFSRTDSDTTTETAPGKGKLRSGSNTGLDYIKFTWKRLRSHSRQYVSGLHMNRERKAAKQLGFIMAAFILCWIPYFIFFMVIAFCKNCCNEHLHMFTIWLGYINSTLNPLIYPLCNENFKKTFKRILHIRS
# Method: as §1
# [5] = biological target: T4, recombinant human H2 histamine receptor (Homo sapiens, UniProt P25021); experiment: Histamine H2 receptor radioligand binding; details: [125I]-Aminopotentidine 0.1 nM, human rCHO-K1 cell membranes; up to 30 μM
# T4 construct: expressed in transfected cells; host or cells: CHO cells (membranes)
# T4 sequence (P25021 whole entry): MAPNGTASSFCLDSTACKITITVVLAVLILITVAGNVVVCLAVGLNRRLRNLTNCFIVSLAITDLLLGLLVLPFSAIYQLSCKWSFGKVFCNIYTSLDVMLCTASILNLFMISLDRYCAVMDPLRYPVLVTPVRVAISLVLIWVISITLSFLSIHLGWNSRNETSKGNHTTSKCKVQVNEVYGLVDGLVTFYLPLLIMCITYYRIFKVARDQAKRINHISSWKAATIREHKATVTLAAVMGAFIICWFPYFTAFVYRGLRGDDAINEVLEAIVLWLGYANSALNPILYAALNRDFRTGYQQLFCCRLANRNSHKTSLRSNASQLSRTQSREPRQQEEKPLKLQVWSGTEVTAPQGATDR
# Method: as §1
# [6] = pKa determination (Sirius GLpKa); format: physicochemical
# Method: as §2
# The pKa had to be determined first in order to calculate the Log P. The ΔPI is used to determine the pKa needed for the Log P experiment followed by the conjugates. Promethazine was first weighed into a vessel. […] The same procedure was followed for each PEG-Promethazine conjugate n=3-9. The vessels were placed in the assay tray of the instrument. A method had to be set up for the pKa run. The experimental parameters are entered into the computer software. These included sample weight, molecular weight, assay type (aqueous pKa), number of assays (three), and titration range (generally 3.5-12). The run was started. There are three measurements for each run that are averaged to obtain the final results from the data points collected in the calculation software. All runs were denoted as “good” by the green check mark next to the assay number.
# [7] = biological target: T5, recombinant human M5 muscarinic acetylcholine receptor (Homo sapiens, UniProt P08912); experiment: Muscarinic M5 receptor radioligand binding; details: 3H-N-Methylscopolamine 0.8 nM, CHO cell membranes
# T5 construct: expressed in transfected cells; host or cells: CHO cells (membranes)
# T5 sequence (P08912 1-532): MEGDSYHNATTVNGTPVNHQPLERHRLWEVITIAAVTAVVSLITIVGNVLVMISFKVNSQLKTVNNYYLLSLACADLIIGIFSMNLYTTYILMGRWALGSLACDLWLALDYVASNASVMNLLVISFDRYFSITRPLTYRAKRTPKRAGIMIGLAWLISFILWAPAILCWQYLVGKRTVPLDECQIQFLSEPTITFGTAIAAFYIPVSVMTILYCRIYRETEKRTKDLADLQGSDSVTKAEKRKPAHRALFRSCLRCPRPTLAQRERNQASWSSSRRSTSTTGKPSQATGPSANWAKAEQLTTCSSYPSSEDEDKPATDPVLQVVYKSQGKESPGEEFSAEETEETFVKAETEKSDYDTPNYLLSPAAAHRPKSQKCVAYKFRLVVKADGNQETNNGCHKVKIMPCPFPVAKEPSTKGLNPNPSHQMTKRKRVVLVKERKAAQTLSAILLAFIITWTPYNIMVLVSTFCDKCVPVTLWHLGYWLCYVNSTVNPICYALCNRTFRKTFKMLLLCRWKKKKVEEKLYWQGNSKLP
# Brain:plasma ratio = format: in vivo; details: rat, brain and plasma, iv; rats, 5 mg/kg intravenously, one hour after injection; brain (ng/g) / plasma (ng/mL)
# Method: An hour following injection, the animals were sacrificed and plasma and brain were collected and frozen immediately. Following tissue and plasma extractions, concentrations of the compounds in brain and plasma were measured using LC-MS/MS. The brain:plasma ratio was calculated as the ratio of measured concentrations in the brain(ng/g) and plasma (ng/mL).
# [8] = biological target: T6, recombinant human M2 muscarinic acetylcholine receptor (Homo sapiens, UniProt P08172); experiment: Muscarinic M2 receptor radioligand binding; details: 3H-N-Methylscopolamine 0.8 nM, CHO cell membranes
# T6 construct: expressed in transfected cells; host or cells: CHO cells (membranes)
# T6 sequence (P08172 1-466): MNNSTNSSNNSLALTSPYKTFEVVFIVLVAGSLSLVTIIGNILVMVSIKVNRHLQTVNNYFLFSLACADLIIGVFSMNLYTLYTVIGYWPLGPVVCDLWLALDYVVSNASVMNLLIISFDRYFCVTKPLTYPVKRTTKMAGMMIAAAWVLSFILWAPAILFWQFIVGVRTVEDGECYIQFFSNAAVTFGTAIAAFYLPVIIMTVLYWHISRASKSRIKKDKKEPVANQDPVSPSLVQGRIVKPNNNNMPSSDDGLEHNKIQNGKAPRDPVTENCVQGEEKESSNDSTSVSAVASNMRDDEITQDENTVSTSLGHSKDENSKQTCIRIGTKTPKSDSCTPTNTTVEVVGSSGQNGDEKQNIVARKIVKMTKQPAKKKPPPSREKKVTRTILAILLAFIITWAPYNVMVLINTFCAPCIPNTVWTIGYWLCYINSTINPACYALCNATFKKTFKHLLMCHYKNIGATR
# [9] = biological target: T7, recombinant human M4 muscarinic acetylcholine receptor (Homo sapiens, UniProt P08173); experiment: Muscarinic M4 receptor radioligand binding; details: 3H-N-Methylscopolamine 0.8 nM, CHO cell membranes
# T7 construct: expressed in transfected cells; host or cells: CHO cells (membranes)
# T7 sequence (P08173 1-479): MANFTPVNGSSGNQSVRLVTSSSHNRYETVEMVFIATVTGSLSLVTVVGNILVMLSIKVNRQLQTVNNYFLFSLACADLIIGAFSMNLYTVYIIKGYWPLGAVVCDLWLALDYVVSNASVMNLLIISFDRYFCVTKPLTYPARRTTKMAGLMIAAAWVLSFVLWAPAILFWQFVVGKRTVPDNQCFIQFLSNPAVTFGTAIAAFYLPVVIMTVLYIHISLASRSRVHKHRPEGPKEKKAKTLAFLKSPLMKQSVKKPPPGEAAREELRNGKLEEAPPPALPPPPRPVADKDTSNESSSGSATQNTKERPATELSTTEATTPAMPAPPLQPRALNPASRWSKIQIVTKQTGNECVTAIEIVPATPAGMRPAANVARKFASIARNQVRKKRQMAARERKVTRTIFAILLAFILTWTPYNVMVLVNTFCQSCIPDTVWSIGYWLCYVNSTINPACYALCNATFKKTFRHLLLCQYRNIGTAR
# [10] = system: CD-1 male mice (visceral pain); experiment: Analgesic assay: acetic acid writhing; format: in vivo; details: Dose 10 mg/kg, single pretreatment 30 min before IP 0.5% acetic acid; contractions counted 0-20 min
# Method: An analgesic assay was used to determine whether a given compound can reduce and/or prevent visceral pain in mice.
# Mice were treated according to standard protocols.
# Contractions were counted between 0 and 20 minutes after the injection. The animals were used once.
# [11] = aqueous solution, read-out: pKa
Molecule,Ki [1] [µM],Ki [2] [µM],logP ([3]; read-out: LogP),Ki [4] [µM],Fold change in binding affinity at H1 [4],Ki [5] [µM],"pKa [6, 11]",Ki [7] [µM],Kp at 1 h (Brain:plasma ratio),Ki [8] [µM],logP [3],"pKa ([6]; aqueous pKa, 25° C., average of three measurements)",Ki [9] [µM],Acetic Acid Writhing Mean (% Morphine) [10] [% Morphine]
"COCCOCCOCCN(C)C(C)CN1c2ccccc2Sc2ccccc21 (stereo not shown) [mPEG3-N-Promethazine, mPEG3-N-promethazine]",> 30,> 30,3.65,0.00228,8.20,> 30,8.4,,,,,,,
"COCCOCCOCCOCCOCCOCCN(C)C(C)CN1c2ccccc2Sc2ccccc21 (stereo not shown) [mPEG6-N-Promethazine, mPEG6-N-promethazine]",> 30,> 30,3.25,0.0132,47.48,> 30,8.53,1.74,0.098,0.337,,,,
mPEG8-N-Promethazine,,,,,,,,,,,2.648,8.238,,
"CC(CN1c2ccccc2Sc2ccccc21)N(C)C (stereo not shown) [Promethazine, reference compound]",> 30,> 30,3.43,,,> 30,8.99,0.00934,,0.0264,,,0.00774,
"COCCOCCOCCOCCN(C)C(C)CN1c2ccccc2Sc2ccccc21 (stereo not shown) [mPEG4-N-Promethazine, mPEG4-N-promethazine]",> 30,> 30,3.51,0.00195,7.01,> 30,8.45,,1.86,,,,,
mPEG9-N-promethazine,,> 30,,,,> 30,,,,0.308,,,,−59.69
"COCCOCCOCCOCc1ccc2c(c1)Sc1ccccc1N2CC(C)N(C)C (stereo not shown) [mPEG3-O-Promethazine, mPEG3-O-promethazine]",> 30,> 30,,0.00762,27.41,> 30,,,,,,,,
"COCCOCCOCCOCCOCCOCCOCCN(C)C(C)CN1c2ccccc2Sc2ccccc21 (stereo not shown) [mPEG7-N-Promethazine, mPEG7-N-promethazine]",> 30,> 30,3,0.0169,60.79,> 30,8.49,0.905,0.112,0.09,,,0.435,
"COCCOCCOCCOCCOCCOCc1ccc2c(c1)Sc1ccccc1N2CC(C)N(C)C (stereo not shown) [mPEG5-O-Promethazine, mPEG5-O-promethazine]",> 30,> 30,,0.00716,25.76,> 30,,,,,,,,
"COCCOCCOCCOCCOCCN(C)C(C)CN1c2ccccc2Sc2ccccc21 (stereo not shown) [mPEG5-N-Promethazine, mPEG5-N-promethazine]",> 30,> 30,3.6,0.00853,30.68,> 30,8.67,,0.243,0.817,,,,
"COCCOCCOCCOCCOCCOCCOCCOCCOCCOCc1ccc2c(c1)Sc1ccccc1N2CC(C)N(C)C (stereo not shown) [mPEG9-O-Promethazine, mPEG9-O-promethazine]",> 30,> 30,,0.0451,162.23,> 30,,,,,,,,
"COCCOCCOCCOCCOCCOCCOCCOCc1ccc2c(c1)Sc1ccccc1N2CC(C)N(C)C (stereo not shown) [mPEG7-O-Promethazine, mPEG7-O-promethazine]",> 30,> 30,,0.0332,119.42,> 30,,,,,,,,
